Laboratory results published in paper PMC7667534, “Calixarbutin: A Novel Calixarene-based Potential Water-soluble Anti-tyrosinase Agent with High Anti-melanoma Activity” (Iranian Journal of Pharmaceutical Research : IJPR, 2020).

Columns and labels:
[1] = target: Mushroom tyrosinase; test: DOPA-chrome assay with L-DOPA ([…]), mushroom tyrosinase […] U/mL, absorbance at […] nm; assay type: biochemical; conditions: read-out: Anti-tyrosinase activity (IC50)
[2] = target: Mushroom tyrosinase; test: DOPA-chrome assay with L-DOPA ([…]), mushroom tyrosinase […] U/mL, absorbance at […] nm; reference inhibitor measured by the authors; assay type: biochemical; conditions: read-out: Anti-tyrosinase activity (IC50)

Row | IC50 [1] [µM] | IC50 [2] [µM] | SMILES
1 | 26 ± 1 | – | OC[C@H]1O[C@@H](Oc2c3cc(O)cc2Cc2cc(O)cc(c2O[C@@H]2O[C@H](CO)[C@@H](O)[C@H](O)[C@H]2O)Cc2cc(O)cc(c2O[C@@H]2O[C@H](CO)[C@@H](O)[C@H](O)[C@H]2O)Cc2cc(O)cc(c2O[C@@H]2O[C@H](CO)[C@@H](O)[C@H](O)[C@H]2O)C3)[C@H](O)[C@@H](O)[C@@H]1O [compound 4]
2 | – | 168 ± 7 | OC[C@H]1O[C@@H](Oc2ccc(O)cc2)[C@H](O)[C@@H](O)[C@@H]1O [Arbutin]
